Measured values as given in patent USRE31731E, “Herbicidal 4-trifluoromethyl-4-nitrodiphenyl ethers” (priority 1978, dated 1984).

Key:
Type in all cases: in vivo
Dicots [1] = assay: Herbicidal activity, postemergence, dicot weeds (Table II); details: post-emergence, 336 h, about 2 weeks, read-out: % control (percent of plants killed); for pest or weed control at 2241.7 g/ha: 2 lb./A.; for pest or weed control at 4483.4 g/ha: 4 lb./A.; for pest or weed control at 11208.5 g/ha: 10 lb./A.
Procedure: (§1) Using the procedure described below, diphenyl ethers were evaluated for control of the following weeds: […]
(§2) bindweed (Convolvulus arvensis) curly dock (Remex crispus) velvetleaf (Abutilon theophrasti) wild mustard (Brassica haber)
(§3) At 2 and 4 pounds per acre: […]
(§4) cocklebur (Xanthium pensylvanicum)
(§5) **coffeeweed (Sesbania macrocarpa)
(§6) *curly dock (Rumex crispus)
(§7) *lambsquarters (Chenopodium album) morningglory (Ipomoea purpurea)
(§8) *pigweed (Amaranthus retroflexus)
(§9) **ragweed (Ambrosia artemisiifolia)
(§10) *smartweed (Polygonum pensylvanicum)
(§11) **tomato (Lycopersicon esculentum)
(§12) *wild carrot (Daucus carota)
(§13) *wild mustard (Brassica haber)
(§14) The following test procedure is employed. Seeds of selected crops and weeds are planted in soil in flats. For preemergence tests, the flats are treated with the test compound immediately after the planting. For postemergence tests, the seeds are allowed to germinate, and after 2 weeks the flats are treated with the test compound. The compound to be evaluated is dissolved in acetone, diluted with water, and sprayed over the flats using a carrier volume equivalent to 50 gallons per acre at the rate of application (pounds per acre, lb/A.) specified in the tables. About 2 weeks after the application of the test compound, the state of growth of the plants is observed and the phytotoxic effect of the compound is evaluated. Table II gives the average percent control achieved by the test compounds in terms of the percent of the plants which are killed by the compounds.

Monocots [2] = assay: Herbicidal activity, postemergence, monocot weeds (Table II); details: post-emergence, 336 h, about 2 weeks, read-out: % control (percent of plants killed); for pest or weed control at 2241.7 g/ha: 2 lb./A.; for pest or weed control at 4483.4 g/ha: 4 lb./A.; for pest or weed control at 11208.5 g/ha: 10 lb./A.
Procedure: as §1
(§15) barnyardgrass (Echinochloa crusgalli) crabgrass (Digitaria spp.) nutsedge (Cyperus esculentus)
(§16) At 2 and 4 pounds per acre:
(§17) **Bermudagrass (Cynodon dactylon)
(§18) *downy brome (Bromus tectorum) foxtail (Setaria faberii)
(§19) Johnsongrass (Sorghum halepense) […]
(§20) quackgrass (Agropyron repens)
(§21) *ryegrass (Lolium perenne)
(§22) *yellow millet (Panicum miliaceum)
as §14

Monocots [3] = assay: Herbicidal activity, preemergence, monocot weeds (Table II); details: pre-emergence, 336 h, about 2 weeks, read-out: % control (percent of plants killed); for pest or weed control at 2241.7 g/ha: 2 lb./A.; for pest or weed control at 4483.4 g/ha: 4 lb./A.; for pest or weed control at 11208.5 g/ha: 10 lb./A.
Procedure: as §1, §15, §16, §17, §18, §19, §20, §21, §22, §14

Dicots [4] = assay: Herbicidal activity, preemergence, dicot weeds (Table II); details: pre-emergence, 336 h, about 2 weeks, read-out: % control (percent of plants killed); for pest or weed control at 2241.7 g/ha: 2 lb./A.; for pest or weed control at 4483.4 g/ha: 4 lb./A.; for pest or weed control at 11208.5 g/ha: 10 lb./A.
Procedure: as §1, §2, §3, §4, §5, §6, §7, §8, §9, §10, §11, §12, §13, §14

Structure (SMILES) | pest or weed control at 2241.7 g/ha (Dicots [1]) [%] | pest or weed control at 4483.4 g/ha (Dicots [1]) [%] | pest or weed control at 11208.5 g/ha (Dicots [1]) [%] | pest or weed control at 2241.7 g/ha (Monocots [2]) [%] | pest or weed control at 4483.4 g/ha (Monocots [2]) [%] | pest or weed control at 11208.5 g/ha (Monocots [2]) [%] | pest or weed control at 2241.7 g/ha (Monocots [3]) [%] | pest or weed control at 4483.4 g/ha (Monocots [3]) [%] | pest or weed control at 11208.5 g/ha (Monocots [3]) [%] | pest or weed control at 2241.7 g/ha (Dicots [4]) [%] | pest or weed control at 4483.4 g/ha (Dicots [4]) [%] | pest or weed control at 11208.5 g/ha (Dicots [4]) [%]
CCOc1cc(Oc2ccc(C(F)(F)F)cc2C#N)ccc1[N+](=O)[O-] [Example 7, 2-Cyano-α,α,α-trifluoro-p-tolyl-3-ethoxy-4-nitrophenyl ether] | 80 | 77 | 100 | 82 | 75 | 100 | 65 | 65 | 61 | 54 | 57 | 60
COc1cc(Oc2ccc(C(F)(F)F)cc2Cl)ccc1[N+](=O)[O-] [Example 2] | – | 100 | 100 | – | 99 | 100 | – | 97 | 97 | – | 80 | 100
CC(Oc1cc(Oc2ccc(C(F)(F)F)cc2Cl)ccc1[N+](=O)[O-])C(N)=O (stereo not drawn) [Example 51, 2-chloro-α,α,α-trifluoro-p-tolyl-3-(1-carbamoylethoxy)-4-nitrophenyl ether] | 98 | 100 | – | 86 | 75 | – | 96 | 79 | – | 100 | 100 | –
O=C(CCl)Nc1cc(Oc2ccc(C(F)(F)F)cc2Cl)ccc1[N+](=O)[O-] [Example 35, 2-chloro-α,α,α-trifluoro-p-tolyl-3-chloroacetamido-4-nitrophenyl ether] | 80 | 98 | – | 63 | 45 | – | 60 | 40 | – | 72 | 40 | –
O=[N+]([O-])c1ccc(Oc2ccc(C(F)(F)F)cc2Cl)cc1O [Example 10, 2-Chloro-α,α,α-trifluoro-p-tolyl-3-hydroxy-4-nitrophenyl ether] | 85 | 98 | – | 17 | 67 | – | 66 | 70 | – | 70 | 100 | –
N#Cc1cc(Oc2ccc(C(F)(F)F)cc2Cl)ccc1[N+](=O)[O-] [Example 47, 2-Chloro-α,α,α-trifluoro-p-tolyl-3-cyano-4-nitrophenyl ether] | 84 | 72 | – | 24 | 11 | – | 80 | 61 | – | 80 | 40 | –
CCCOc1cc(Oc2ccc(C(F)(F)F)cc2C#N)ccc1[N+](=O)[O-] [Example 8] | 66 | 80 | 100 | 35 | 48 | 85 | 52 | 61 | 81 | 46 | 57 | 82
CCOC(=O)COc1cc(Oc2ccc(C(F)(F)F)cc2Cl)ccc1[N+](=O)[O-] [Example 24] | 100 | 99 | – | 84 | 86 | – | 62 | 91 | – | 97 | 68 | –
CC#CCCOc1cc(Oc2ccc(C(F)(F)F)cc2Cl)ccc1[N+](=O)[O-] [Example 14] | 100 | 94 | – | 91 | 61 | – | 30 | 64 | – | 22 | 78 | –
C#CCOc1cc(Oc2ccc(C(F)(F)F)cc2Cl)ccc1[N+](=O)[O-] [Example 13] | 100 | 98 | – | 100 | 77 | – | 78 | 76 | – | 72 | 90 | –
Cc1cc(Oc2ccc(C(F)(F)F)cc2C#N)ccc1[N+](=O)[O-] [Example 9] | 75 | 81 | 100 | 82 | 97 | 100 | 81 | 90 | 99 | 67 | 66 | 92
CS(=O)(=O)CCOc1cc(Oc2ccc(C(F)(F)F)cc2Cl)ccc1[N+](=O)[O-] [Example 42] | 88 | 98 | – | 63 | 38 | – | 83 | 62 | – | 60 | 80 | –
O=[N+]([O-])c1ccc(Oc2ccc(C(F)(F)F)cc2Cl)cc1OCC(O)CO (stereo not drawn) [Example 39, 2-chloro-α,α,α-trifluoro-p-tolyl-3-(2,3-dihydroxypropoxy)-4-nitrophenyl ether] | 100 | 98 | – | 61 | 64 | – | 77 | 65 | – | 80 | 99 | –
O=[N+]([O-])c1ccc(Oc2ccc(C(F)(F)F)cc2Cl)cc1OCCO [Example 15, 2-chloro-α,α,α-trifluoro-p-tolyl-3-(2-hydroxyethoxy)-4-nitrophenyl ether] | 94 | 99 | – | 76 | 79 | – | 68 | 99 | – | 90 | 100 | –
CNC(=O)Nc1cc(Oc2ccc(C(F)(F)F)cc2Cl)ccc1[N+](=O)[O-] [Example 44] | 10 | 98 | – | 7 | 60 | – | 0 | 66 | – | 17 | 96 | –
CC(Oc1cc(Oc2ccc(C(F)(F)F)cc2Cl)ccc1[N+](=O)[O-])C(=O)O (stereo not drawn) [Example 25, 2-Chloro-α,α,α-trifluoro-p-tolyl-3-(1-carboxyethoxy)-4-nitrophenyl ether] | 100 | 100 | – | 88 | 97 | – | 40 | 87 | – | 93 | 88 | –
O=[N+]([O-])c1ccc(Oc2ccc(C(F)(F)F)cc2Cl)cc1N1CCOCC1 [Example 28, 2-chloro-α,α,α-trifluoro-p-tolyl-3-morpholino-4-nitrophenyl ether] | 100 | 99 | – | 73 | 73 | – | 79 | 74 | – | 79 | 95 | –
CCCCOc1cc(Oc2ccc(C(F)(F)F)cc2Cl)ccc1[N+](=O)[O-] [Example 6] | – | 94 | 100 | – | 91 | 97 | – | 77 | 65 | – | 55 | 70
